Data as given in US7988952B2, “Delivery of drug esters through an inhalation route” (Alexza Pharmaceuticals, Inc., priority 2001, dated 2011).

Experiments:
[1] = Volatilization from halogen bulb; purity of the aerosol by reverse-phase HPLC; format: physicochemical; conditions: thermal vapor from coated aluminum foil on 300 watt halogen tube, 60 V 5-12 s or 90 V 2.5-3.5 s; HPLC at 225 nm
Protocol: A solution of drug in approximately 120 μL dichloromethane is coated on a 3.5 cm×7.5 cm piece of aluminum foil (precleaned with acetone). The dichloromethane is allowed to evaporate. The coated foil is wrapped around a 300 watt halogen tube (Feit Electric Company, Pico Rivera, Calif.), which is inserted into a glass tube sealed at one end with a rubber stopper. Running 60 V of alternating current (driven by line power controlled by a variac) through the bulb for 5-12 s or 90 V for 2.5-3.5 s affords thermal vapor (including aerosol), which is collected on the glass tube walls. (When desired, the system is flushed through with argon prior to volatilization.) Reverse-phase HPLC analysis with detection by absorption of 225 nm light is used to determine the purity of the aerosol.
Table 1, which follows, provides data from drugs volatilized using the above-recited general procedure.

[2] = Hydrolysis studies of drug esters in PBS solution (pH 7.5); format: physicochemical; conditions: PBS pH 7.5, room temperature, read-out: t1/2 for hydrolysis
Protocol: Drug ester (20 μL, 10 mM acetonitrile) is added to 1 mL PBS solution (pH 7.5) at room temperature. At intermittent time points, an aliquot of the resulting mixture is injected into an HPLC to obtain the ratio of drug ester to drug acid or drug alcohol. An Arrhenius plot of the data provides a t1/2 for hydrolysis.

[3] = Human serum hydrolysis studies of drug esters; format: in vitro ADME; conditions: 37° C., read-out: t1/2 for hydrolysis
Protocol: Human serum (2.34 mL) is placed in a test tube. To the serum is added 260 μL of a 10 mM solution of drug ester in acetonitrile. The tube is placed in a 37° C. incubator, and at various time points a 500 μL aliquot is removed. The aliquot is mixed with 500 μL methanol, and the mixture is vortex mixed and centrifuged. A sample of the supernatant is analyzed by HPLC obtain the ratio of drug ester to drug acid or drug alcohol. An Arrhenius plot of the data provides a t1/2 for hydrolysis.

| half-life at 0.196 mM [2] [h] | half-life at 1 mM [3] [h] | Compound | AEROSOL PURITY [1] [%] |
| --- | --- | --- | --- |
| > 48 | 2.4 | COC(=O)C(C)c1cccc(C(=O)c2ccccc2)c1 (stereo not drawn) [Ketoprofen Methyl Ester] | 99 |
| – | – | Apomorphine Diacetate | 96.9 |
| – | – | COC(=O)C1CCn2c(C(=O)c3ccccc3)ccc21 (stereo not drawn) [Ketorolac Methyl Ester] | 100 |
| – | – | CN(C)CCOC(=O)C1CCn2c(C(=O)c3ccccc3)ccc21 (stereo not drawn) [Ketorolac Norcholine Ester, 2-(N,N-Dimethylamino)Ethyl Ester of Ketorolac] | 100 |
| > 48 | 3.73 | CCOC(=O)C(C)c1cccc(C(=O)c2ccccc2)c1 (stereo not drawn) [Ketoprofen Ethyl Ester] | 99.65 |
| – | – | CCOC(=O)C1CCn2c(C(=O)c3ccccc3)ccc21 (stereo not drawn) [Ketorolac Ethyl Ester] | >99 |
| – | – | CC(=O)Oc1ccc2c(c1OC(C)=O)-c1cccc3c1C(C2)N(C)CC3.Cl (stereo not drawn) [Apomorphine Diacetate-HCl] | 94 |
| – | – | COC(=O)Cc1c(C)n(C(=O)c2ccc(Cl)cc2)c2ccc(OC)cc12 [Indomethacin Methyl Ester] | 99 |
| – | – | COc1ccc2c(c1)c(CC(=O)OCCN(C)C)c(C)n2C(=O)c1ccc(Cl)cc1 [Indomethacin Norcholine Ester] | 100 |
| – | – | CC(C(=O)OCCN(C)C)c1cccc(C(=O)c2ccccc2)c1 (stereo not drawn) [Ketoprofen Norcholine Ester] | 100 |
| – | – | CCOC(=O)Cc1c(C)n(C(=O)c2ccc(Cl)cc2)c2ccc(OC)cc12 [Indomethacin Ethyl Ester] | >99 |
